Test results: patent publication US5011828A, “Immunostimulating guanine derivatives, compositions and methods” (priority 1988, dated 1991)
Values joined by “and” are separate entries in the source; they are usually repeats but may differ in a detail not shown here. Identical values can stand only once.

Experiments:
[1] = system: murine lymphocytes (sheep red blood cells as antigen); assay: Antigen-specific adjuvanticity: direct anti-SRBC plaque forming cells, murine system; assay type: cell-based, mouse; conditions: for Peak Direct anti-SRBC PFC/Culture / adjuvanticity, in words: murine system; for Peak Direct anti-SRBC PFC/Culture: at peak concentration; for Average 1 Log Plaque Values: Table 9, murine, * = single study
Text: ^1 Adjuvanticities against sheep red blood cells [SRBC] measured in
direct plaqueforming cells per culture of lymphocytes from the mouse
strains shown. Details of the procedure are provided in the Materials and
Methods Section. Standard errors from the enumerated mean values are show
A large number of comparisons of adjuvanticity using human and murine lymphocytes as the source of leukocytes have been carried out using compounds of the present invention, as well as with new compounds excluded from the present invention. […] Interstudy comparisons are however useful for showing trends and large differences. Tables 5, 6 and 7, hereinafter, provide exemplary data from such studies in which only the activity at the peak concentration is shown for each compound and the results for the controls are omitted.
Lymphocyte cultures. The serum-containing culture medium water prepared to contain the following per 100 milliliters: 91.9 milliliters RPMI 1640 (Flow Laboratories, Inc., Rockville, Md.), 0.1 milliliters of 100×glutamine, 1.0 milliliter of 100×sodium pyruvate, 1 0 milliliter of 50×nonessential amino acids, 1.0 milliliter of water containing 10^4 units of penicillin G and 10^4 micrograms of streptomycin, and 5.0 milliliters of a supportive lot of fetal calf serum (FCS). These ingredients were admixed to apparent homogeneity. Spleen cell suspensions and populations enriched for splenic B cells were prepared as described in Goodman et al., J. Immunol., 121:1905 (1978).
For evaluation of the primary humoral immune response to sheep erythrocytes (SRBC), 5×10^6 to 10^7 murine spleen cells were cultured in 1.0 milliliter of 5% FCS-containing medium for 4 or 5 days in the presence and absence of immunogen. Cells were incubated in culture trays (Costar, Cambridge, Mass.) at 37° C. in a humidified atmosphere of 10% CO2 in air using tissue culture boxes (CBS Scientific, Del Mar, Calif.) that were rocked at a frequency of 7 cycles per minute. Pooled SRBC are available from the Colorado Serum Co., Denver Colo.
(§1) Assay of plaque forming cells (PFC). PFC secreting antibodies against SRBC were evaluated after 4 or 5 days of culture using a modification of the hemolytic plaque assay of Jerne and Nordin, Science, 140:405 (1963). The cells were brought up in complete medium before plaquing; they were plaqued in standard low Mr agarose (Bio-Rad Laboratories, Richmond Calif.), and were incubated in SRBC-absorbed guinea pig complement for one hour after a 1.5 hour incubation without complement.

[2] = system: human peripheral blood lymphocytes (sheep red blood cells as antigen); assay: Antigen-specific adjuvanticity: direct anti-SRBC plaque forming cells, human system; assay type: cell-based; conditions: for Average 1 Log Plaque Values: Table 9, human, * = single study
Procedure: ^1 Studies were carried in a manner similar to those of Table 1,
except that a human lymphocyte preparation was used.
The results shown in Table 7, below, were obtained similarly to those discussed above, but using human lymphocytes. Some of those studies utilized lymphocytes from more than one individual, and are therefore reported with multiple entries.
Human peripheral blood lymphocytes (PBL) were prepared from normal heparinized venous blood by Ficoll-diatrizoate density gradient centrifugation. PBL were depleted of suppressor T cells bearing the histamine type 2 receptor by adhering them to the surfaces of histamine-rabbit serum albumin-coated plastic petri dishes (Cell-ect No. 2 kit; Seragen, Boston, Mass.) and by recovering the nonadherent cells by panning as described by Wysocki and Sato, Proc. Natl. Acad. Sci. USA, 75:2844 (1978) and modified by Cavagnaro and Osband, Biotechniques, January/February:30 (1983).
The tissue culture medium employed in these studies for human lymphocytes was prepared as follows: One hundred milliliters (ml) contained 87.9 ml RPMI 1640 (Flow Laboratories, Rockville, Md.), 0.1 ml 100×glutamine,1.0 ml of 1.0 M HEPES buffer (Microbilogical Associates, Betheseda, Md.), 1.0 ml of water containing 10^4 U of penicillin G and 10^4 micrograms of streptomycin, and 10 ml of fresh autologous heat-inactivatedplasma. For evaluation of the primary humoral immune response to SRBC, lymphoid cells prepared as above were cultured at a density of 2×10^6 /ml in a volume of 1.0 ml containing 5×10^6 SRBC as antigen (Colorado Serum Co., Denver, Colo.) together with IL-2 (a partially purified preparation of human IL-2 that was free of interferon-gamma activity was obtained from Electro-Nucleonics, Inc., Silver Spring, Md.) and the guanine nucleoside derivative.
as §1

murine spleen cells = assay: Mitogenicity: [3H]TdR uptake, murine system; assay type: cell-based, mouse
Text: ^1 Mitogenicity measured by the uptake of [^3 H]TdR
(tritiumlabeled thymidine deoxyribonucleoside) as determined by measuring
counts per minute (cpm) per cell culture using the conditions discussed i
the Materials and Methods Section.

[3] = system: SJL splenocytes (irradiated CBA/CaJ splenocyte stimulators); assay: T cell proliferation in mixed leukocyte cultures, SJL splenocytes; assay type: cell-based, mouse; conditions: responder +, stimulator +, 10^-3 M
Text: In evaluating the effect of a guanosine derivative on alloantigen-induced proliferation, it is imperative to minimize the simultaneous mitogenic response of B cells to contact with a guanosine derivative. Spleen cells from SJL mice (whose B cells are hyporesponsive to the mitogenic effect of a guanosine derivative, but not to its adjuvant activity) were used as responder cells in two studies. Those responder cells were stimulated with irradiated allogenic cells (from CBA/CaJ mice) in the presence of no added nucleoside, incremental amounts of a guanosine derivative of the invention, 7M8oGuo, or with another guanosine derivative, 8MGuo, used as a positive control.
(§2) ^1 Plus signs (+) are utilized to indicate the presence of the
material of the column heading in the culture medium, whereas minus signs
(-) are utilized to show absence of such a material from the culture
(§3) ^3 Allogeneic cells used to costimulate proliferation, after exposure
(§4) T Helper Cell Activation. 1.5×10^5 viable spleen cells from SJL mice or CBA/CaJ mouse thymocytes were cultured with or without an equal number of irradiated (2500 rads) spleen cells from CBA/CaJ or BDFl mice respectively, in 0.2 ml of culture medium in the presence of incremental concentrations of the exemplary 7,8-disubstituted guanine derivatives. The lymphocyte culture medium utilized was that described before, and was further supplemented with 2-mercaptoethanol to a final concentration of 50 uM. Thymocyte cultures also contained 10 percent (v/v) of a concanavalin A-conditioned rat spleen cell medium sold under the name Rat T Cell Monoclone by Collaborative Research. Following 90 hours of culture, one microCurie [^3 H]TdR per culture was admixed, and the resulting culture was maintained for a further six hour time period.
(§5) The cultures were harvested with a Brandel cell harvester (M24V, Biological Research and Development Laboratories, Rockville, Md.) onto glass fiber filter disks. Filter disks were transferred to plastic scintillation vials, covered with liquid scintillation cocktail, and counted in a Beckman LS5700 liquid scintillation counter.

[4] = system: CBA/CaJ thymocytes (irradiated BDF1 splenocyte stimulators); assay: T cell proliferation in mixed leukocyte cultures, CBA/CaJ thymocytes; assay type: cell-based, mouse; conditions: Study 3, responder +, stimulator +
Text: A third and fourth study utilized thymocytes from CBA/CaJ mice as the stimulated (responder) cells, and irradiated BDFl mouse spleen cells as the stimulator cells. Two guanosine derivatives of the present invention, 7a8MGuo and 7a8oGuo, were used for these studies, with 8MGuo serving as positive control for one of the studies.
However, in the presence of interleukin-2 (IL-2), those cells develop responsiveness to allogeneic stimulation. The present studies utilizing thymocytes were therefore carried out in the presence of a co-stimulating amount of IL-2.
as §2, §3, §4, §5

[5] = Table 7, later studies, single preparation

Compound | Direct Anti-SRBC PFC/Culture ([1]; Table 8, 1 × 10^-5 M) [PFC/Culture] | Average 1 Log Plaque Values [1] | [3H] TdR Uptake (murine spleen cells; Table 2, 10^-3 M) | [3H] TdR Uptake (murine spleen cells; Table 2, 10^-4 M) [cpm/culture] | Direct Anti-SRBC PFC/Culture ([1]; Table 1, CBA/CaJ, 3 × 10^-4 M) | Direct Anti-SRBC PFC/Culture ([1]; Table 1, CBA/CaJ, 10^-3 M) [PFC/Culture] | Direct Anti-SRBC PFC/Culture ([1]; Table 1, CBA/CaJ, 10^-4 M) [PFC/Culture] | Peak Direct anti-SRBC PFC/Culture ([1]; Table 5) [PFC/Culture] | Peak Direct anti-SRBC PFC/Culture [2, 5] [PFC/Culture] | Direct Anti-SRBC PFC/Culture ([1]; Table 1, C57BL/6J, 3 × 10^-4 M) | also measured
C=CCn1c(=S)n([C@@H]2O[C@H](COC(C)=O)[C@@H](OC(C)=O)[C@H]2OC(C)=O)c2nc(N)[nH]c(=O)c21 [compound 22360, 7-(2-Propenyl)-8-thioxo-2',3',5'-triacetylguanosine] | 1176 | 53,695 ± 28,444 per micromole |  |  |  |  |  |  |  |  | Peak Direct anti-SRBC PFC/Culture ([1]; Table 6): 743 ± 48 PFC/Culture; Peak Direct anti-SRBC PFC/Culture ([2]; Table 7, second group, person a): 925 PFC/Culture; Peak Direct anti-SRBC PFC/Culture ([2]; Table 7, second group, person b): 6008 PFC/Culture; Peak Direct anti-SRBC PFC/Culture ([2]; Table 7, second group, person c): 5050 PFC/Culture; Average 1 Log Plaque Values [2]: 38,508 ± 26,802 per micromole
C=CCSc1nc2c(=O)[nH]c(N)nc2n1[C@@H]1O[C@H](CO)[C@@H](O)[C@H]1O [compound 22300, 8-(2-propenylmercapto)guanosine] |  |  | 16,400 ± 1130 cpm/culture | 2700 ± 130 | 870 ± 70 PFC/Culture | 490 ± 133 | 420 ± 105 |  |  |  | adjuvanticity, in words [1]: about equal adjuvanticity to that of 8MGuo
C=CCn1c(=[Se])n([C@@H]2O[C@H](CO)[C@@H](O)[C@H]2O)c2nc(N)[nH]c(=O)c21 [compound 23369, 7-(2-Propenyl)-8-selenoxoguanosine] |  |  |  |  |  |  |  | 2425 ± 229 | 2204 ± 370 |  | 
CCn1c(=O)n([C@@H]2O[C@H](CO)[C@@H](O)[C@H]2O)c2nc(N)[nH]c(=O)c21 [compound 23643, 7-Ethyl-8-oxoguanosine] | 270 |  |  |  |  |  |  |  | 9045 ± 310 |  | [3H] TdR Uptake (murine spleen cells; Table 4, 3 × 10^-4 M): 48,690 ± 1120 cpm/culture; [3H] TdR Uptake (murine spleen cells; Table 4, 10^-3 M): 34,160 ± 780 cpm/culture; [3H] TdR Uptake (murine spleen cells; Table 4, 10^-4 M): 37,490 ± 540 cpm/culture; peak concentration lower than comparison compound ([1]; murine system (Table 5), vs 8-BrGuo): 1.5 log units
CC=CCSc1nc2c(=O)[nH]c(N)nc2n1[C@@H]1O[C@H](CO)[C@@H](O)[C@H]1O [compound 22435, 8-(2-Butenylmercapto)guanosine] |  |  | 11,200 ± 202 cpm/culture | 4500 ± 120 | 582 ± 52 PFC/Culture | 607 ± 57 | 247 ± 38 |  |  | 9130 ± 1110 PFC/Culture | [3H] TdR Uptake (murine spleen cells; Table 2, 3 × 10^-4 M): 8800 ± 200 cpm/culture; Direct Anti-SRBC PFC/Culture ([1]; Table 1, C57BL/6J, 10^-3 M): 12,080 ± 470 PFC/Culture; adjuvanticity, in words [1]: greater than that of the longer 8-cinnamyl derivative (22359), but less than that of the 8-mercapto compound (8MGuo)
Nc1nc2c(nc(SCC=Cc3ccccc3)n2[C@@H]2O[C@H](CO)[C@@H](O)[C@H]2O)c(=O)[nH]1 [compound 22359, 8-(Cinnamylmercapto)guanosine] |  |  | 1700 ± 280 cpm/culture | 1600 ± 90 | 157 ± 7 PFC/Culture | 653 ± 52 | 123 ± 21 |  |  | 2620 ± 100 PFC/Culture | [3H] TdR Uptake (murine spleen cells; Table 2, 3 × 10^-4 M): 1300 ± 80 cpm/culture; Direct Anti-SRBC PFC/Culture ([1]; Table 1, C57BL/6J, 10^-3 M): 3110 ± 350 PFC/Culture
Nc1nc2c(nc(S)n2[C@@H]2O[C@H](CO)[C@@H](O)[C@H]2O)c(=O)[nH]1 [8MGuo, 8-mercaptoguanosine, reference compound] |  |  |  |  | 527 ± 25 PFC/Culture and 782 ± 123 PFC/Culture |  | 813 ± 129 |  |  | 11,000 ± 140 PFC/Culture | [3H] TdR Uptake ([3]; Study 1): 28,100 ± 2700 counts per minute; [3H] TdR Uptake ([3]; Study 2): 30,800 ± 1300 counts per minute; Peak Direct anti-SRBC PFC/Culture ([1]; Table 6): 527 ± 25 PFC/Culture; [3H] TdR Uptake ([4]; 10^-4 M): 13,800 ± 1000 counts per minute; [3H] TdR Uptake ([4]; 10^-5 M): 15,600 ± 1000 counts per minute
Nc1nc2c(c(=O)[nH]1)n(CC=Cc1ccccc1)c(=O)n2[C@@H]1O[C@H](CO)[C@@H](O)[C@H]1O [compound 22827, 7-[(3-Phenyl)-2-propenyl]-8-oxoguanosine] |  |  |  |  |  |  |  | 1357 ± 226 | 2577 ± 300 |  | adjuvanticity higher / more active than comparison compound of U.S. Pat. No. 4,643,992 ([1]; murine system (Table 5), vs 7m8oGuo or compounds of that patent): more than 100%
CC=CCn1c(=O)n([C@@H]2O[C@H](CO)[C@@H](O)[C@H]2O)c2nc(N)[nH]c(=O)c21 [compound 23679, 7-(2-Butenyl)-8-oxoguanosine] | 612 | 52,332 per micromole |  |  |  |  |  |  | 3129 ± 252 |  | 
CCCCn1c(=O)n([C@@H]2O[C@H](CO)[C@@H](O)[C@H]2O)c2nc(N)[nH]c(=O)c21 [compound 23644, 7-Butyl-8-oxoguanosine] | 900 | 118,886 ± 80,092 per micromole |  |  |  |  |  | 1058 ± 154 |  |  | [3H] TdR Uptake (murine spleen cells; Table 4, 3 × 10^-4 M): 41,180 ± 410 cpm/culture; [3H] TdR Uptake (murine spleen cells; Table 4, 10^-3 M): 33,220 ± 1330 cpm/culture; [3H] TdR Uptake (murine spleen cells; Table 4, 10^-4 M): 30,720 ± 1030 cpm/culture; Average 1 Log Plaque Values [2]: 52,397 per micromole; peak adjuvanticity values greater as compared to 7m8oGuo ([2]; human system (Table 3)): about 100%
